According to patent US8198441B2, “Process for the preparation of novel pyridopyrazines as mTOR kinase inhibitors” (AstraZeneca AB, priority 2008, dated 2012):
Like-named read-outs stand apart in the source and are kept apart here. Values belong to the molecule of their own block, whether it stands above or below them.

Assays:
[1] = TIM-1 multi-compartmental in vitro model, bioaccessibility; type: in vitro ADME; conditions: for recovery at 10 mg/mL: TIM-1 multi-compartmental in vitro gastrointestinal model, read-out: Total recovery
Procedure: Bioaccessibility of a compound of Formula 5a in the form of a free base and a fumarate salt was assessed using a TIM-1 multi-compartmental in vitro model (TNO Quality of Life, The Netherlands).
Initial assessment of solutions and suspensions of the free base form at concentrations of 10 mg/mL and doses of 200 mg and 500 mg were performed using a standard protocol (lipid-fasted with starting gastric pH of 2 and a gastric half-time of 30 minutes).
A further study was performed with an increased initial gastric pH of 5 and a reduced gastric half-time of 20 min. In this study, 200 mg (free base equivalent) doses of 10 mg/mL suspensions of the free base and fumarate salt of the compound of Formula 5a were compared (see Table 4, FIG. 8).

[2] = Stability study of the fumarate salt in the solid state; type: physicochemical
Procedure: The stability of the fumarate salt of the compound of Formula 5a in the solid state was investigated for samples stored at 25° C./60% relative humidity (RH) in double lined polyethylene bags inside a fibreboard outer for long term stability testing. […] AH (ambient humidity) in double lined polyethylene bags inside fibreboard outers. Further stress testing was performed on exposed samples at 40° C./75% RH and at ambient temperature in a light chamber (exposed to a minimum of 1.2 million lux hours visible light and 200 watt-hours/m^2 UV light), as shown in Table 5.

recovery at 10 mg/mL ([1]; 200 mg (free base equivalent), pH 5, 200 mg (free base equivalent) of 10 mg/mL suspension, initial gastric pH 5, gastric half-time 20 min): 93% | recovery at 10 mg/mL ([1]; 200 mg, pH 2, 200 mg solution, 10 mg/mL, lipid-fasted, starting gastric pH 2, gastric half-time 30 min): 96.8% | recovery at 10 mg/mL ([1]; 200 mg, pH 2, 200 mg suspension, 10 mg/mL, lipid-fasted, starting gastric pH 2, gastric half-time 30 min): 97.6% | recovery at 10 mg/mL ([1]; 200 mg, pH 2, Table 4: 200 mg suspension, gastric pH 2): 97.6% | recovery at 10 mg/mL ([1]; 500 mg, pH 2, 500 mg solution, 10 mg/mL, lipid-fasted, starting gastric pH 2, gastric half-time 30 min): 93.6% | recovery at 10 mg/mL ([1]; 500 mg, pH 2, 500 mg suspension, 10 mg/mL, lipid-fasted, starting gastric pH 2, gastric half-time 30 min): 91.7%
SMILES: COc1ccc(-c2ccc3c(N4CCOC[C@@H]4C)nc(N4CCOC[C@@H]4C)nc3n2)cc1CO [Formula 5a free base, (5-{2,4-bis[(3S)-3-methylmorpholin-4-yl]pyrido[2,3-d]pyrimidin-7-yl}-2-methoxyphenyl)methanol]

Total recovery ([1]; 200 mg (free base equivalent) of 10 mg/mL suspension, initial gastric pH 5, gastric half-time 20 min): 95.12 | Assay (water and solvent-free, % w/w) ([2]; 1 month, 40° C./75% RH exposed): 100.3 % w/w | Organic impurities: Largest single impurity (% w/w) ([2]; 1 month, 40° C./75% RH exposed): 0.16 % w/w | Total organic impurities (% w/w) ([2]; 1 month, 40° C./75% RH exposed): 0.36 % w/w | Water content (% w/w) ([2]; 1 month, 40° C./75% RH exposed): 5.0 % w/w | Assay (water and solvent-free, % w/w) ([2]; 3 months, 25° C./60% RH): 99.7 % w/w | Organic impurities: Largest single impurity (% w/w) ([2]; 3 months, 25° C./60% RH): 0.16 % w/w | Total organic impurities (% w/w) ([2]; 3 months, 25° C./60% RH): 0.31 % w/w | Water content (% w/w) ([2]; 3 months, 25° C./60% RH): 4.5 % w/w | Assay (water and solvent-free, % w/w) ([2]; 3 months, 40° C./75% RH): 99.3 % w/w | Organic impurities: Largest single impurity (% w/w) ([2]; 3 months, 40° C./75% RH): 0.16 % w/w | Total organic impurities (% w/w) ([2]; 3 months, 40° C./75% RH): 0.26 % w/w | Water content (% w/w) ([2]; 3 months, 40° C./75% RH): 5.6 % w/w | Assay (water and solvent-free, % w/w) ([2]; 3 months, 50° C.): 96.8 % w/w | Organic impurities: Largest single impurity (% w/w) ([2]; 3 months, 50° C.): 0.16 % w/w | Total organic impurities (% w/w) ([2]; 3 months, 50° C.): 0.44 % w/w | Water content (% w/w) ([2]; 3 months, 50° C.): 0.6 % w/w | degradation on storage ([2]; 25° C./60% RH, 40° C./75% RH and 50° C. AH, 3 months): no significant degradation | Assay (water and solvent-free, % w/w) ([2]; 10 days, light-exposed): 95.5 % w/w | Organic impurities: Largest single impurity (% w/w) ([2]; 10 days, light-exposed): 0.97 % w/w | Total organic impurities (% w/w) ([2]; 10 days, light-exposed): 2.28 % w/w | Water content (% w/w) ([2]; 10 days, light-exposed): 5.0 % w/w | Assay (water and solvent-free, % w/w) ([2]; Initial): 99.4 % w/w | Organic impurities: Largest single impurity (% w/w) ([2]; Initial): 0.16 % w/w | Total organic impurities (% w/w) ([2]; Initial): 0.31 % w/w | Water content (% w/w) ([2]; Initial): 3.4 % w/w | thermal degradation ([2]; stored at 50° C.): some evidence of thermal degradation
SMILES: COc1ccc(-c2ccc3c(N4CCOC[C@@H]4C)nc(N4CCOC[C@@H]4C)nc3n2)cc1CO.O=C(O)/C=C/C(=O)O [Formula 5a fumarate salt, (5-{2,4-Bis[(3S)-3-methylmorpholin-4-yl]pyrido[2,3-d]pyrimidin-7-yl}-2-methoxyphenyl)methanol Fumarate salt]
effect of exposure to light under stress conditions ([2]; light chamber, minimum 1.2 million lux hours visible and 200 watt-hours/m2 UV): darkened on exposed surfaces and a loss of assay and corresponding increase in organic impurities
